Values quoted from earlier work, collected in patent publication US8617611B2, “Polymeric compositions comprising therapeutic agents in crystalline phases, and methods of forming the same” (Cordis Corporation, priority 2005, dated 2013).

solubility in dimethyl sulfoxide (DMSO) (DMSO): soluble
solubility in other solvents such as methylene chloride (methylene chloride): not soluble
Structure (SMILES): COc1ccc(/C=C/C(=O)Nc2ccccc2C(=O)O)cc1OC [Tranilast]
